Measurements from patent US20260174745A1, “COMPOSITIONS AND METHODS FOR TREATING NF1 AND OTHER CONDITIONS” (priority 2022, published 2026).

How the values were obtained:
[1] = system: mammary tumors; conditions: previously shown; cited from earlier work
[2] = system: LL2 cells; assay: LL2 subcutaneous tumor dose ranging study; type: in vivo, C57/BL6 mice; conditions: bexarotene 30 mg/kg
[3] = Triglyceride levels in LL2 dose ranging study; conditions: bexarotene 30 mg/kg; plasma
Experimental: In this study, 7-8 week old male C57/BL6 mice were injected with 1×10^6 LL2 cells subcutaneously into the left flank. Tumors were measured with calipers twice per week (Monday and Thursday) and mice were weighed once per week (Monday). […] When tumors reached endpoint (20×20 mm or ulceration), mice were euthanized and tumors fixed in formalin. Blood was collected for plasma. Stats: two-way ANOVA w/Tukey HSD.

[4] = system: Kras-driven lung tumors; assay: Established Kras-driven lung tumors in A/J mice (vinyl carbamate initiation); type: in vivo
Experimental: FIG. 2 is photographs of mouse lungs and mouse lung tissue section stains collected […] of Kras mutations with vinyl carbamate. A/J mice were fed control diet or RXR agonists (100 mg/kg diet or 25 mg/kg body weight) for 12 weeks. Lungs were harvested and photographed (A) and then sectioned and stained with hematoxylin and eosin (“H & E”) to evaluate tumor grade (B) as defined in collaboration with a human lung cancer pathologist. […] Compound 1 has the structure: FIG. 3 is a plot of tumor burden and photographs of mouse lung tissue section stains. Eight weeks after initiation of Kras mutations, A/J mice were fed control diet or compound 1 (25 mg/kg) for 12 weeks. Lungs were sectioned and stained with H & E or by immunohistochemistry (“IHC”) to evaluate tumor burden or biomarkers, respectively. […] FIG. 4 is plots showing data collected from lung tumors induced in A/J mice as described in FIG. 3. After 12 weeks of treatment with compound 1 (25 mg/kg) or control diet, lungs were harvested. Immune cell populations in the lungs were analyzed by flow cytometry using an optimized multi-colored panel of antibodies.

[5] = system: mammary tumors; assay: MMTV-neu mice with established mammary tumors; type: in vivo; conditions: for T cell / immune cell populations in mammary tumors: flow cytometry and IHC
Experimental: FIG. 5 is plots and stains obtained from MMTV-neu mice with established mammary tumors, which were treated with compound 1 for 10 days. Tumor size (A) was evaluated by calipers, immune cell populations by flow cytometry (B) and IHC (C). n=8 mice/group in A-C and n=4/group for quantification (D) of PCNA and p-ERK optical density. The data in FIG. 5 compound 1 reduces tumor burden and p-ERK and alters T cell populations in mammary tumors.

[6] = system: RXR; assay: RXR activation; conditions: read-out: EC50 in activating RXR
[7] = system: THP1 macrophages; assay: CCL2 mRNA (qPCR) in THP1 macrophages stimulated with conditioned medium from ipNF95.6 cells; type: cell-based, human; conditions: 50 nM selumetinib, 200 nM compound 1 or combination, 24 hrs, PMA + CM
Experimental: FIG. 8 is a plot showing results of experiments involving THP1 human monocytes that were differentiated into macrophages with 50 ng/ml PMA for 3 days, followed by treatment with conditioned medium (CM) from ipNF95.6 neurofibroma cells and drugs (50 nM selumetinib (Sel), 200 nM compound 1, or the combination) for an additional 24 hrs. CCL2 expression was evaluated by qPCR and normalized to the DMSO control without treatment with PMA+CM (not shown). Data represent means±standard deviations of two independent experiments, p<0.05 vs. DMSO control.
FIG. 10A is a plot showing the results where THP1 monocytes were differentiated into macrophages with 50 ng/ml PMA for 3 days, followed by treatment with CM from human PNF cells (ipNF95.6) and drugs (50 nM selumetinib, 200 nM compound 1, or the combination) for an additional 24 hrs.
Combination treatment with compound 1 and selumetinib decreased CCL2 mRNA expression in THP1 cells and BMDM stimulated with conditioned media (CM) from human and mouse PNF cells. […] CCL2 mRNA expression was evaluated by qPCR and normalized to the DMSO control without CM treatment (not shown). Data represent means±standard deviations. * p<0.05, ** p<0.01 compared with vehicle treatment.

[8] = Triglyceride elevation in vivo
[9] = system: NF1-ipNF 95.6 neurofibroma cells; assay: p-ERK expression by western blotting in neurofibroma cells; type: cell-based, human; conditions: 3 hours; for reduction of p-ERK expression: 50 nM selumetinib, 200 nM compound 1 or combination
Experimental: (§1) FIGS. 6A and 6B are a […] and a plot, respectively, generated from experiments on NF1-ipNF 95.6 neurofibroma cells treated with 50 nM selumetinib (Sel), 5 nM trametinib (Tra, an alternative MEK inhibitor used as a control), 200 nM compound 1, or the combination for 3 hours. Protein expression was evaluated by western blotting and LiCOR imaging (A). In B, cells were treated with 200 nM MSU42011, 100 nM Sel or the combination for 72 hrs, and cell viability measured using an MTT assay. *, P<0.05 vs. other groups.

[10] = system: NF1-ipNF 95.6 neurofibroma cells; assay: MTT cell viability in neurofibroma cells; type: cell-based, human; conditions: 200 nM MSU42011, 100 nM selumetinib or combination, 72 hrs
Experimental: as §1

[11] = flow cytometry of lungs, p<0.05

Cc1cc2c(cc1C1(c3ccc(C(=O)O)cn3)CC1)C(C)(C)CCC2(C)C [LG100268]
CD206+ tumor-promoting macrophages, MDSCs and Foxp3+ Tregs in tumors [1]: decreased
number of activated cytotoxic CD8 T cells in tumors [1]: increased

C=C(c1ccc(C(=O)O)cc1)c1cc2c(cc1C)C(C)(C)CCC2(C)C [bexarotene]
CD206+ tumor-promoting macrophages, MDSCs and Foxp3+ Tregs in tumors [1]: not observed
number of activated cytotoxic CD8 T cells in tumors [1]: not observed
activity against the tumors [2]: not active against the tumors
triglyceride levels [3]: raises triglycerides

CC(C)N(c1cc(C(C)(C)C)cc(C(C)(C)C)c1)c1ccc(C(=O)O)cn1 [compound 1, 6-[(3,5-di-tert-butylphenyl) (propan-2-yl)amino]pyridine-3-carboxylic acid]
lung tumor burden ([4]; 25 mg/kg in diet, 12 weeks): significantly (p=0.0015) reduced
tumor-promoting CD206+ macrophages within lung tumors ([4]; IHC): reduced
p-ERK levels within lung tumors ([4]; IHC, p=0.03): reduced
activated cytotoxic T cells (ratio of CD8+/CD4+, CD25+) [4, 11]: increased
immunosuppressive CD4+CD25+ Tregs [4, 11]: decreased
tumors that were high grade ([4]; histopathology, control group 77%, p<0.05): 62%
average tumor burden lower compared to the control and bexarotene groups ([4]; lungs of A/J mice, 100 mg/kg diet (25 mg/kg body weight), 12 weeks, p=0.015): 60%
number, size and histopathology of lung tumors ([4]; vs untreated controls and bexarotene-treated mice): significantly (p<0.05) decreased
T cell / immune cell populations in mammary tumors [5]: alters
T cell / immune cell populations in mammary tumors ([5]; listed as Compound 1): alters the same immune cells in this model as LG100268
p-ERK in mammary tumors ([5]; treated 10 days, IHC optical density): reduces
tumor burden in mammary tumors ([5]; treated 10 days, calipers): reduces
EC50 [6]: 30 nM
decrease of CCL2 mRNA expression [7]: 23%
elevation of triglycerides in vivo [8]: does not elevate triglycerides
reduction of p-ERK expression [9]: approximately 70%
expression of p-ERK ([9]; 200 nM compound 1, 50 nM selumetinib): decreases
cell viability [10]: reduces viability

Cn1cnc2c(F)c(Nc3ccc(Br)cc3Cl)c(C(=O)NOCCO)cc21 [selumetinib, reference compound]
reduction of p-ERK expression [9]: ~40%
